This assay concerns the target β-adrenergic receptor (β-AR; subtype not determined).

SMILES strings stand for the structures.

As usually defined, the Kd is the concentration at which binding is half-saturated. In the case of `CC(C)(C)NC[C@H](O)COc1cccc2[nH]c(C#N)c(I)c12` [125I-CYP, (-)3-[125I]iodocyanopindolol], the Kd stood at 0.0324 ± 0.0011 nM.

(Values after article PMC1198236, “β-adrenergic receptor activation in immortalized human urothelial cells stimulates inflammatory responses by PKA-independent mechanisms” (Cell communication and signaling : CCS, 2005).)
